Test [1] deals with K562 cell line. Description: Cell viability assay ([…]-GLO), K562. Format: cell-based. Conditions: Homo sapiens; K562 (does not express ITD-FLT3), 72 hours treatment. Here is the method: Cell viability in the presence of varying concentrations of the above listed compounds at different time points was used to assess cytotoxicity and the effect of the compounds on cell proliferation.
Cell viability was measured by the […]-GlO® cell viability assay from Promega (Madison, Wis.). The […]-GlO Luminescent Cell Viability Assay is a homogeneous method to determine the number of viable cells in culture based on quantitation of the ATP present, which signals the presence of metabolically active cells. Following treatment, […]-GlO® is added to treatment wells and incubated at 37° C. Luminescence values were measured at using a Molecular Devices Spectramax microplate reader.
Cells were grown to 70% confluency, trypsinized, counted, and seeded in 96 well flat-bottom plates at a final concentration of 2.5×10^3-5×10^3 cells/well (Day 0). Cells were allowed to incubate in growth media for 24 hours. Treatment with the test agents or standard agents began on Day 1 and continued for 72 hours. At the 72-hour time point, treatment containing media was removed. Viable cell numbers were quantified by the […]-GLO® cell viability assay as described above. Results from these studies were used to calculate an IC50 value (concentration of drug that inhibits cell growth by 50 percent of control) for each compound.
For single agent and combination studies, data from each experiment was collected and expressed as % Cell Growth using the following calculation: % Cell Growth=(ftest/fvehicle)×100
Where ftest is the luminescence of the tested sample, and fvehicle is the luminescence of the vehicle in which the drug is dissolved. Dose response graphs and IC50 values were generated using Prism 6 software (GraphPad) using the following equation: Y=(Top−Bottom)/(1+10^((logIC50-X)−HillSlope))
Where X is the logarithm of the concentration and Y is the response. Y starts at the Bottom and goes to the Top with a sigmoid shape.
The experiments also evaluated the selectivity of the compounds for inhibiting growth of cancer cells carrying a mutation in the Flt3 gene. The MV411 cell line expresses the mutant allele of Flt3 with internal tandem duplications (ITD) of the gene. See Quentmeier et al., “FLT3 Mutations in Acute Myeloid Leukemia Cell Lines,” Leukemia 17(1), 2003, 120-124. […] See Grafone et al., “Monitoring of FLT3 Phosphorylation Status and Its Response to Drugs By Flow Cytometry in AML Blast Cells,” Hematol Oncol. 26(3), 2008, 159-166.

In test [2] the test system is MV411 cell line. Description: Cell viability assay ([…]-GLO), MV411. Type of test: cell-based. Particulars: for IC50: Homo sapiens, MV4-11, MV411 (ITD-FLT3+), 72 hours treatment; for FLT3-ITD+ Selectivity (K562/MV411): ratio K562/MV411.
For test [3], the target named is ROCK2 (Homo sapiens (Human), UniProt O75116). Description: ROCK2 kinase inhibition assay (peptide phosphorylation, LABCHIP 3000). Format: biochemical. Particulars: 7 μM ATP, 2.5 nM ROCK2, 3 hours at 25° C.
ROCK2, sequence (O75116 whole entry, species assumed): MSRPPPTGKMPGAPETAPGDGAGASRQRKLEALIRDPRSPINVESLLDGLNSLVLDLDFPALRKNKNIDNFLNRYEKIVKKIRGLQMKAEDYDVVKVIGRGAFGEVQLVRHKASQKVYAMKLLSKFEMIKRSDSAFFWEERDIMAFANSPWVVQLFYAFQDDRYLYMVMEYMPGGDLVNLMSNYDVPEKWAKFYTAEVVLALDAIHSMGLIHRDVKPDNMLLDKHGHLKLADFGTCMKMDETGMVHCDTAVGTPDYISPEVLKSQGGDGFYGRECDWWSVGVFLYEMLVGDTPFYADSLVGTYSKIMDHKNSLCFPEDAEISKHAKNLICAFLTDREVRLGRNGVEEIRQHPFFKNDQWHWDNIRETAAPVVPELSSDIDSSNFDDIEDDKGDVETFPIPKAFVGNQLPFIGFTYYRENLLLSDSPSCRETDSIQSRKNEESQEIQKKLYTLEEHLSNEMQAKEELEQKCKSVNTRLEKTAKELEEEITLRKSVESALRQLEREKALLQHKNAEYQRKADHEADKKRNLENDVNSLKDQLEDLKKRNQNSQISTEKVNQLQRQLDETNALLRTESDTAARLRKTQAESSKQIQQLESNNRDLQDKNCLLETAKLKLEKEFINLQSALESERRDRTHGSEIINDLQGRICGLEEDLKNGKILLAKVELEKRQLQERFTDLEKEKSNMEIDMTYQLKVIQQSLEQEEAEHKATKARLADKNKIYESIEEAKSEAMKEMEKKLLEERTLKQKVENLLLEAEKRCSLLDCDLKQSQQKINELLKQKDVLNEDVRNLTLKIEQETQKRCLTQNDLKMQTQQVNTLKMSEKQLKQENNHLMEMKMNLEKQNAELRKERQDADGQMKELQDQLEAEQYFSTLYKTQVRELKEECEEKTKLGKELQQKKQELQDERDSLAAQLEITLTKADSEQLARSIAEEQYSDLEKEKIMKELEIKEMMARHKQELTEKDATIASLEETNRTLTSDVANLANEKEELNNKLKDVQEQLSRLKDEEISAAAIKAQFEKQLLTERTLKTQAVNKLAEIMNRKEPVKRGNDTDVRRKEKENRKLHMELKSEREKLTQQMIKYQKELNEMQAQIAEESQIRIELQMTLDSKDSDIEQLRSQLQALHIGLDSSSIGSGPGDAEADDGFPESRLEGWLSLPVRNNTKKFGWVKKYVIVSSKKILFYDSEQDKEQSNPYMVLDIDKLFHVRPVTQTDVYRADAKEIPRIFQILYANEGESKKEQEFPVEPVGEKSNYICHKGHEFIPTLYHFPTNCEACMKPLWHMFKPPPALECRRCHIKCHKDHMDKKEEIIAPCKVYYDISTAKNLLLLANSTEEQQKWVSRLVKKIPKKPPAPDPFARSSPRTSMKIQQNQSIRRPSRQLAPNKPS
Procedure: The peptide is phosphorylated by the protein kinase ROCK1 or ROCK2. The ROCK1 or ROCK2 enzyme, substrate, and cofactors (ATP and Mg^2+) are combined in a well of a microtiter plate and incubated for 3 hours at 25° C. in the presence or absence of an inhibitor compound. At the end of the incubation, the reaction is quenched by the addition of an EDTA-containing buffer. The substrate and product are separated and quantified electrophoretically using the microfluidic-based LABCHIP® 3000 Drug Discovery System from Caliper Life Sciences (Hopkinton, Mass.).
The components of the assay mixture are:
10 μM Sodium Orthovanadate
10 LM Beta-Glycerophosphate
5 μM ATP (for ROCK1) or 7 μM ATP (for ROCK2)
3 nM ROCK1 or 2.5 nM ROCK2 enzyme
Substrate and product peptides present in each sample are separated electrophoretically using the LABCHIP® 3000 capillary electrophoresis instrument. […] Change in the relative fluorescence intensity of the substrate and product peaks is the parameter measured reflecting enzyme activity. Capillary electrophoregramms (RDA acquisition files) are analyzed using HTS Well Analyzer software (Caliper Life Sciences, Hopkinton, Mass.). The kinase activity in each sample is determined as the product to sum ratio (PSR): P/(S+P), where P is the peak height of the product peptide and S is the peak height of the substrate peptide. For each compound, enzyme activity is measured at various concentrations (12 concentrations of compound spaced by 3× dilution intervals). Negative control samples (0%-inhibition in the absence of inhibitor) and positive control samples (100%-inhibition in the presence of 20 mM EDTA) are assembled in replicates of four and are used to calculate %-inhibition values for each compound at each concentration. Percent inhibition (Pinh) is determined using the following equation: Pinh=(PSRO %−PSRinh)/(PSRO %−PSR100%)*100
where PSRinh is the product sum ratio in the presence of inhibitor, PSRO % is the average product sum ratio in the absence of inhibitor, and PSR100% is the average product sum ratio in 100%-inhibition control samples. The IC50 values of inhibitors are determined by fitting the inhibition curves (Pinh versus inhibitor concentration) by the 4-parameter sigmoidal dose-response model using XLfit 4 software (IBDS).

With `C[C@@H](NC(=O)c1ccc(-c2ccncc2)cc1)c1cccc(C(=O)NCC2CCN(C)CC2)c1` [Compound 49], the IC50 in test [1] was greater than 100000 nM; in test [2] it was 20 nM; in test [3] it was 0.3 nM. The “FLT3-ITD+ Selectivity (K562/MV411)” value in test [2] was greater than 5050.

For `CN1CCC(NC(=O)c2cccc([C@@H](CO)NC(=O)c3ccc(-c4ccncc4)cc3)c2)CC1` [Compound 50], the half-inhibitory concentration (IC50) in test [1] was greater than 100000 nM; in test [2], 100 nM; in test [3] it was 0.33 nM. The “FLT3-ITD+ Selectivity (K562/MV411)” value in test [2] is reported as greater than 1010.

`O=C(NC1CCCC1)c1cccc([C@@H](CO)NC(=O)c2ccc(-c3ccncc3)cn2)c1` [Compound 51]: the IC50 in test [1] was greater than 100000 nM; in test [2], 1450 nM; in test [3] it was 4.38 nM. For the same molecule, the “FLT3-ITD+ Selectivity (K562/MV411)” value in test [2] is recorded as greater than 70.

On to `CN(C)C1CCC(NC(=O)c2cccc([C@@H](CO)NC(=O)c3ccc(-c4ccncc4)cc3)c2)CC1` (some centres unmarked) [Compound 52], for which the IC50 is greater than 100000 nM in test [1], 120 nM in test [2] and 0.61 nM in test [3]. In addition, the “FLT3-ITD+ Selectivity (K562/MV411)” value in test [2] is listed as greater than 842.

Turning to `O=C(NC1CCC(F)(F)CC1)c1cccc([C@@H](CO)NC(=O)c2ccc(-c3ccncc3)cc2)c1` [Compound 53], the IC50 was greater than 100000 nM in test [1], 220 nM in test [2] and 0.66 nM in test [3]. In addition, the “FLT3-ITD+ Selectivity (K562/MV411)” value in test [2] was greater than 459.

Consider `O=C(NC1CCN(C2CC2)CC1)c1cccc([C@@H](CO)NC(=O)c2ccc(-c3ccncc3)cc2)c1` [Compound 54], for which the values for the IC50 in test [1], in test [2] and in test [3] were greater than 100000 nM, 70 nM and 0.54 nM, respectively. Moreover, the “FLT3-ITD+ Selectivity (K562/MV411)” value in test [2] is on record as greater than 1443.

On to `CC(C)N1CCC(NC(=O)c2cccc([C@@H](CO)NC(=O)c3ccc(-c4ccncc4)cc3)c2)CC1` [Compound 55], for which the IC50 was greater than 100000 nM in test [1], 120 nM in test [2] and 0.47 nM in test [3]. For the same molecule, the “FLT3-ITD+ Selectivity (K562/MV411)” value in test [2] is reported as greater than 842.

As for `CC(C)N1CCC(CNC(=O)c2cccc([C@@H](CO)NC(=O)c3ccc(-c4ccncc4)cc3)c2)CC1` [Compound 56], the IC50 in test [1] was greater than 100000 nM; in test [2], 90 nM; in test [3], 0.31 nM. Moreover, the “FLT3-ITD+ Selectivity (K562/MV411)” value in test [2] is on record as greater than 1122.

Consider `CN1CCC(C)(CNC(=O)c2cccc([C@@H](CO)NC(=O)c3ccc(-c4ccncc4)cc3)c2)CC1` [Compound 57], for which the values for the IC50 in test [1], in test [2] and in test [3] were greater than 100000 nM, 90 nM and 0.63 nM, respectively. Besides, in test [2], the “FLT3-ITD+ Selectivity (K562/MV411)” value is reported as greater than 1122.

Take `O=C(NCC1CCN(C2CC2)CC1)c1cccc([C@@H](CO)NC(=O)c2ccc(-c3ccncc3)cc2)c1` [Compound 58]: the 50% inhibitory concentration (IC50) in test [1] was greater than 100000 nM; in test [2] it was 40 nM; in test [3], 0.44 nM. The “FLT3-ITD+ Selectivity (K562/MV411)” value in test [2] is recorded as greater than 2525.

Turning to `CCN1CCC(CNC(=O)c2cccc([C@@H](CO)NC(=O)c3ccc(-c4ccncc4)cc3)c2)CC1` [Compound 59], the IC50 in test [1] is greater than 100000 nM; in test [2], 280 nM; in test [3] it was 0.46 nM. For the same molecule, the “FLT3-ITD+ Selectivity (K562/MV411)” value in test [2] is recorded as greater than 361.

For the molecule `CC(C)N1CCC(CNC(=O)c2cccc([C@@H](C)NC(=O)c3ccc(-c4ccncc4)cc3)c2)CC1` [Compound 60], the IC50 in test [1] is greater than 100000 nM; in test [2], 40 nM; in test [3] it was 0.53 nM. For the same molecule, in test [2], the “FLT3-ITD+ Selectivity (K562/MV411)” value is greater than 2525.

With `O=C(NC1CCCC1)c1cccc([C@@H](CO)NC(=O)c2cc(-c3ccncc3)n[nH]2)c1` [Compound 61], the half-maximal inhibitory concentration (IC50) in test [1] was greater than 100000 nM; in test [2], 2500 nM; in test [3], 2.12 nM. Further, in test [2], the “FLT3-ITD+ Selectivity (K562/MV411)” value is greater than 40.

For `CC(C)NC(=O)c1cccc([C@@H](CO)NC(=O)c2ccc(-c3ccncc3)cc2)c1` [Compound 62], the results for the IC50 in test [1], in test [2] and in test [3] were 65000 nM, 1030 nM and 2.85 nM, respectively. Also, the “FLT3-ITD+ Selectivity (K562/MV411)” value in test [2] amounted to 63.

Take `COc1cccc(CNC(=O)c2cccc([C@@H](CO)NC(=O)c3ccc(-c4ccncc4)cc3)c2)c1` [Compound 65]: the IC50 in test [1] is 28000 nM; in test [2], 70 nM; in test [3] it was 0.6 nM. The “FLT3-ITD+ Selectivity (K562/MV411)” value in test [2] is 393.

As for `O=C(NCC1CCC1)c1cccc([C@@H](CO)NC(=O)c2ccc(-c3ccncc3)cc2)c1` [Compound 66], the IC50 in test [1] was 36000 nM; in test [2], 130 nM; in test [3], 0.6 nM. The “FLT3-ITD+ Selectivity (K562/MV411)” value in test [2] is recorded as 279.

Regarding `COCC1(NC(=O)c2cccc([C@@H](CO)NC(=O)c3ccc(-c4ccncc4)cc3)c2)CCCC1` [Compound 67], the IC50 in test [1] was 41000 nM; in test [2], 2670 nM; in test [3], 9.1 nM. In addition, the “FLT3-ITD+ Selectivity (K562/MV411)” value in test [2] is recorded as 15.

On to `O=C(NCC1(O)CCCCC1)c1cccc([C@@H](CO)NC(=O)c2ccc(-c3ccncc3)cc2)c1` [Compound 69], for which the IC50 in test [1] is 52000 nM; in test [2], 150 nM; in test [3] it was 0.7 nM. In test [2], the “FLT3-ITD+ Selectivity (K562/MV411)” value turned out to be 350.

As to `CC1(NC(=O)c2cccc([C@@H](CO)NC(=O)c3ccc(-c4ccncc4)cc3)c2)CCC1` [Compound 71], the IC50 stood at 34000 nM in test [1], 910 nM in test [2] and 9 nM in test [3]. Also, the “FLT3-ITD+ Selectivity (K562/MV411)” value in test [2] is given as 37.

In the case of `CN(C)C1(CNC(=O)c2cccc([C@@H](CO)NC(=O)c3ccc(-c4ccncc4)cc3)c2)CCCC1` [Compound 72], the results for the IC50 in test [1], in test [2] and in test [3] were 89000 nM, 100 nM and 0.5 nM, respectively. Also, the “FLT3-ITD+ Selectivity (K562/MV411)” value in test [2] turned out to be 891.

As to `COC1(CNC(=O)c2cccc([C@@H](CO)NC(=O)c3ccc(-c4ccncc4)cc3)c2)CCC1` [Compound 73], the results for the IC50 in test [1], in test [2] and in test [3] were 27000 nM, 80 nM and 0.6 nM, respectively. For the same molecule, the “FLT3-ITD+ Selectivity (K562/MV411)” value in test [2] is recorded as 337.

As to `CN(C)CC1(NC(=O)c2cccc([C@@H](CO)NC(=O)c3ccc(-c4ccncc4)cc3)c2)CCCC1` [Compound 74], the IC50 was 74000 nM in test [1], 9120 nM in test [2] and 27.1 nM in test [3]. Moreover, in test [2], the “FLT3-ITD+ Selectivity (K562/MV411)” value was found to be 8.

For the molecule `O=C(NCc1cccc(F)c1)c1cccc([C@@H](CO)NC(=O)c2ccc(-c3ccncc3)cc2)c1` [Compound 75], the IC50 was determined as 33000 nM in test [1], 160 nM in test [2] and 0.5 nM in test [3]. In test [2], the “FLT3-ITD+ Selectivity (K562/MV411)” value amounted to 207.

In the case of `O=C(NCC1CC1)c1cccc([C@@H](CO)NC(=O)c2ccc(-c3ccncc3)cc2)c1` [Compound 84], the values for the IC50 in test [1], in test [2] and in test [3] were 33000 nM, 270 nM and 1.2 nM, respectively. Moreover, the “FLT3-ITD+ Selectivity (K562/MV411)” value in test [2] stood at 123.

`COc1ccc(CNC(=O)c2cccc([C@@H](CO)NC(=O)c3ccc(-c4ccncc4)cc3)c2)cc1` [Compound 85]: the IC50 in test [1] worked out at 33000 nM; in test [2], 90 nM; in test [3] it was 0.6 nM. For the same molecule, in test [2], the “FLT3-ITD+ Selectivity (K562/MV411)” value was 368.

As for `O=C(NC1CCCC1)c1cccc([C@@H](CO)NC(=O)c2ccc(-c3ccncc3)cc2F)c1` [Compound 86], the results for the IC50 in test [1], in test [2] and in test [3] were greater than 100000 nM, 1700 nM and 2.7 nM, respectively. Besides, the “FLT3-ITD+ Selectivity (K562/MV411)” value in test [2] is on record as greater than 58.

Consider `COC1(CNC(=O)c2cccc([C@@H](CO)NC(=O)c3ccc(-c4ccncc4)cc3)c2)CCCC1` [Compound 87], for which the IC50 in test [1] turned out to be 23000 nM; in test [2] it was 270 nM; in test [3], 0.8 nM. The “FLT3-ITD+ Selectivity (K562/MV411)” value in test [2] was found to be 85.

`Cc1cc(-c2ccncc2)ccc1C(=O)N[C@H](CO)c1cccc(C(=O)NC2CCCC2)c1` [Compound 88]: the IC50 in test [1] was greater than 100000 nM; in test [2], 8500 nM; in test [3], 7.5 nM. For the same molecule, the “FLT3-ITD+ Selectivity (K562/MV411)” value in test [2] is greater than 12.

In the case of `O=C(NCC1CCCC1)c1cccc([C@@H](CO)NC(=O)c2ccc(-c3ccncc3)cc2)c1` [Compound 89], the values for the IC50 in test [1], in test [2] and in test [3] were 66000 nM, 280 nM and 0.72 nM, respectively. For the same molecule, in test [2], the “FLT3-ITD+ Selectivity (K562/MV411)” value is 236.

The term IC50 denotes the midpoint of a concentration-inhibition curve.

Values taken from patent US10738007B2, “Amide compounds as kinase inhibitors, compositions and methods of treatment” (TRANSLATIONAL DRUG DEVELOPMENT, LLC, priority 2016, dated 2020).
